Article PMC2852148 (Biochemistry, 2010)
Values joined by “and” are separate entries in the source; they are usually repeats but may differ in a detail not shown here. Identical values can stand only once. “Also recorded” adds a separate entry of the source.

Assays:
RDL receptors [1] = molecular target: T1, RDL receptors (Drosophila melanogaster, UniProt P25123); assay: Two-electrode voltage clamp of RDL receptors expressed in Xenopus oocytes; type: cell-based; conditions: for nH (Hill coefficient) / Imax/Imax(GABA) / pEC50: means ± SEM; for EC50: EC50, RDL receptors in Xenopus oocytes; for Imax/Imax(GABA): maximal current relative to maximal GABA-evoked response; for pEC50: -60 mV, N/R = no response
T1 sequence (P25123 45-606): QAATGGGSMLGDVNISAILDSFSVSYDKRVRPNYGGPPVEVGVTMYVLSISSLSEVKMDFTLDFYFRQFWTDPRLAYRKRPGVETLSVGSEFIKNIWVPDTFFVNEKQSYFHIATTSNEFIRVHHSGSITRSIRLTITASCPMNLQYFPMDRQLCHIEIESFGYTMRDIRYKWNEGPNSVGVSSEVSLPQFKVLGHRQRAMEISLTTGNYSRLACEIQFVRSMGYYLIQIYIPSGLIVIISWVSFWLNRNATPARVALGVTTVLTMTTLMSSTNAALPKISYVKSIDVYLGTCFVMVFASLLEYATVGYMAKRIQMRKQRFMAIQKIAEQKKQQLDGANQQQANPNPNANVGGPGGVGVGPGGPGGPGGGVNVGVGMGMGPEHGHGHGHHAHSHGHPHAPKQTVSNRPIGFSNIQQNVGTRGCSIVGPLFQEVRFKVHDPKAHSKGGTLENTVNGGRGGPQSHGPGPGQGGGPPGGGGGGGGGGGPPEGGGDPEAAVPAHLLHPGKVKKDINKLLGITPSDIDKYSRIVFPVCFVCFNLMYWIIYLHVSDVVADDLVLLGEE

RDL receptors [2] = molecular target: T1, RDL receptors; conditions: background statement; cited from earlier work
[3] = RDL receptors in Xenopus oocytes
[4] = applied at concentrations up to 10 mM

| Molecule | nH (Hill coefficient) (RDL receptors [1]; [3]) | EC50 (RDL receptors [1]; Table 1) [µM] | Imax/Imax(GABA) (RDL receptors [1]) | pEC50 (RDL receptors [1]; [3]) | other results |
| --- | --- | --- | --- | --- | --- |
| NCCCC(=O)O [GABA, γ-aminobutyric acid] | 1.8 ± 0.2 |  |  |  |  |
| NCc1cc(=O)[nH]o1 [muscimol] | 2.2 ± 0.6 | 9.04 | 0.87 ± 0.03 |  | agonist type at RDL receptors (RDL receptors [1]; [3]): full agonist |
| NCC=CC(=O)O [TACA, 4-amino-2-butenoic acid] | 1.8 ± 0.2 | 36.7 | 1.0 ± 0.02 |  |  |
| O=C(O)C1=CCNCC1 [isoguvacine] | 1.9 ± 0.2 | 64.9 | 0.97 ± 0.03 |  |  |
| picrotoxin |  |  |  |  | inhibition of homomeric RDL receptors (in words) (RDL receptors [2]): inhibited |
| NCCc1ccc(O)cc1 [tyramine] |  |  |  | N/R | activation of RDL receptors (in words) (RDL receptors [1]; [3]): inactive; activation of RDL receptors (in words) (RDL receptors [1]; [4]): failed to activate |
| NCC(=O)O [glycine] |  |  |  | N/R | activation of RDL receptors (in words) (RDL receptors [1]; [3]): inactive; activation of RDL receptors (in words) (RDL receptors [1]; [4]): failed to activate |
| NCCCCO [4-AB, 4-amino-1-butanol] |  |  |  | N/R | activation of RDL receptors (in words) (RDL receptors [1]; [3]): inactive; activation of RDL receptors (in words) (RDL receptors [1]; [4]): failed to activate |
| NCCS(=O)(=O)O [taurine] |  | > 10000 |  |  | EC50 (RDL receptors [1]): > 10000 µM |
| NCCCP(=O)(O)O [3-APP, 3-aminopropylphosphonic acid] |  |  |  | N/R | activation of RDL receptors (in words) (RDL receptors [1]; [3]): no activating effect; also recorded: inactive |
| Nc1ccc(C(=O)O)cc1 [PABA, p-aminobenzoic acid] |  |  |  | N/R | activation of RDL receptors (in words) (RDL receptors [1]; [4]): failed to activate |
| Oc1noc2c1CCNC2 [THIP, 4,5,6,7-tetrahydroisoxazolo[5,4-c]pyridin-3-ol] | 2.4 ± 1.0 | 226 | 0.57 ± 0.06 |  | EC50 (RDL receptors [1]): 220 µM; agonist type at RDL receptors (RDL receptors [1]; [3]): partial agonist |
| CN1CCc2cc3c(cc2[C@H]1[C@@H]1OC(=O)c2c1ccc1c2OCO1)OCO3 [bicuculline] |  |  |  |  | inhibition of homomeric RDL receptors (in words) (RDL receptors [2]): not inhibited |
| NCCCCC(=O)O [5-AV, 5-aminovaleric acid] | 1.0 ± 0.3 | 1120 | 0.85 ± 0.1 |  | EC50 (RDL receptors [1]): 1100 µM and ~1000 µM |
| NCCC(=O)O [β-alanine] | 2.0 ± 0.3 | 807 | 1.0 ± 0.03 |  | EC50 (RDL receptors [1]): 800 µM and ~1000 µM |
